Experimental data from PMC8044163, “Vitamin D and lumisterol derivatives can act on liver X receptors (LXRs)” (Scientific Reports, 2021).
Read-outs that look alike come from different tables or passages of the source.

Assays:
[1] = system: LXR-response element (LXRE)-driven reporter in CHO cells; experiment: LXRE-driven luciferase reporter assay in CHO cells; format: cell-based; conditions: 10^–7 M, CHO and HaCaT cells (Fig. 4C)
Protocol: The effects of vitamin D3 and L3 hydroxyderivatives were tested on the LXRE transcriptional activity using pGreenFire1-LXRE-in-ApoE Lentivirus (System Biosciences, Palo Alto, CA). This plasmid was transduced in CHO and HaCaT cells following the manufacture’s protocol and the cells used as a stable LXRE expressed tool. Briefly, the virus was transduced into the cells using TransDux MAX Lentivirus Transduction Enhancer (System Biosciences, Palo Alto, CA) and screened to select the transduced cells using puromycin. The transduced cells were treated with the compounds for 24 h in media containing 5% cFBS (charcoal-treated fetal bovine serum) and the luminescence was read by ONE-Glo Luciferase Assay System (Promega, Madison, WI) using Cytation 5 (BioTek, Winooski, VT).

VDR = molecular target: T1, VDR (Homo sapiens, UniProt P11473); experiment: Translocation of VDR to the nucleus, imaging flow cytometry in HaCaT; format: cell-based; conditions: 10^–7 M, 12 h
T1 construct: endogenous in cells; host or cells: HaCaT keratinocytes
T1 sequence (P11473 1-427): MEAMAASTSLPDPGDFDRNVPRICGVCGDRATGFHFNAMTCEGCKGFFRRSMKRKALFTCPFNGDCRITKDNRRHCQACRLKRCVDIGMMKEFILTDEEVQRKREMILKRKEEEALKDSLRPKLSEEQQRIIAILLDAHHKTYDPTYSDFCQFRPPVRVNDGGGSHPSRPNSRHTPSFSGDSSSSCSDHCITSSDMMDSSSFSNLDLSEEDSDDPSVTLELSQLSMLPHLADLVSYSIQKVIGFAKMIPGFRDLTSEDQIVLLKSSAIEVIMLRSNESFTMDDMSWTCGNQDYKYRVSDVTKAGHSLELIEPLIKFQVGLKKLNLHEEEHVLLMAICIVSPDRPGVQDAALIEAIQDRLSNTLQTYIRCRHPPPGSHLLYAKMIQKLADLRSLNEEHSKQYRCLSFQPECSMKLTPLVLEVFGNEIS

LXRα = molecular target: T2, LXRα (Homo sapiens, UniProt Q13133); experiment: Ligand induced translocation of LXRα to the nucleus, immunofluorescence in HaCaT; format: cell-based; conditions: 10^−7 M, 24 h
T2 construct: endogenous in cells; host or cells: HaCaT keratinocytes
T2 sequence (Q13133 1-447): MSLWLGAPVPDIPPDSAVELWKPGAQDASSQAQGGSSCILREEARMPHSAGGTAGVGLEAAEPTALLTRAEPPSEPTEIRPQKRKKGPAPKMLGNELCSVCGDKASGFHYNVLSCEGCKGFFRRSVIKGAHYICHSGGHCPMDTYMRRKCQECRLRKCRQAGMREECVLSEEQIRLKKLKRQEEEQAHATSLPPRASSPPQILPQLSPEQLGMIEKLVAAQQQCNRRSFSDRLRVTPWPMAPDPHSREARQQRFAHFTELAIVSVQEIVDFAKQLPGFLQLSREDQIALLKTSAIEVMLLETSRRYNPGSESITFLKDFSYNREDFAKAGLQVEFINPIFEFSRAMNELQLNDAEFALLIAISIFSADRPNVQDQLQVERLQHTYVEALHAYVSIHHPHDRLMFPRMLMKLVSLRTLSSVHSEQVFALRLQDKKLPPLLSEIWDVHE
Protocol: HaCaT cells were plated in DMEM plus 5% cFBS either on a sterile glass cover slip placed in a well of a 6-well plates for immunofluorescence (IF) assays or TPP Petri dishes for image-stream flow cytometry, and treated with 10^–7 M D3- or L3-hydroxyderivatives or 0.1% ethanol (vehicle) as a negative control was added to each well, and the cells were incubated for 12 or 24 h at 37 °C with 5% CO2. For IF the cells were fixed in 4% paraformaldehyde for 15 min, incubated in 0.5% Triton X-100 in phosphate-buffered saline (PBS) for 5 min, and washed 3 times in PBS. After blocking with 2% bovine serum albumin (BSA) in PBS for 1 h at room temperature, the cells were treated with an anti-LXRα antibody (Novus Biologicals, LLC, Centennial, CO) at 1:200 in PBS supplemented with 2% BSA overnight in 4 °C. After washing the slides were incubated with a mouse anti-rabbit IgG-FITC (Santa Cruz Biotechnology, Inc, Dallas, TX) at 1:200 dilution for 1.5 h at 37 °C. After washing the slides were mounted using propidium iodide (PI) (Vector Labs, Burlingame, California) as a nuclear counterstain. The slides were examined using a KEYENCE America BZ-X710 Fluorescence Microscope (Itasca, IL). The images were subsequently analyzed using the JACoP plugin for colocalization analysis with ImageJ[74]. Five separate high-power field (40×) images were converted to grayscale and analyzed for each condition. Manders’ coefficient (M1), calculated using a preset threshold, was used to quantify the degree of colocalization between PI and LXRα with 0 representing no colocalization, and 1 representing perfect colocalization.

ABCA1 = experiment: qPCR of ABCA1 in HaCaT keratinocytes; format: cell-based, human; conditions: 10^–7 M
Protocol: HaCaT keratinocytes were cultured as described previously. For RNA isolation the cells were maintained in TPP tissue culture petri dishes (Ø60 mm, 22.1 cm^2) in DMEM containing 10% cFBC to reach semi-confluence and then exposed to 10^–7 M compounds or a corresponding concentration of ethanol solvent.
RNA isolated from either fibroblasts, HaCaT cells or brain was submitted for cDNA synthesis (High Capacity cDNA Reverse Transcription Kit with RNase Inhibitor, Applied Biosystems) following the manufacturers’ protocols. RT-PCR was carried out using Cyber green, in triplicates; as previously described. Approximately, 750 ng of cDNA was used for PCR reactions. GAPDH and CIC-B were used as internal controls. Primer sequences are listed in Supplementary Table 27. Data were analyzed using GraphPad Prism statistical software one way ANOVA or t-test, where appropriate; *p < 0.05; **p < 0.01; ***p < 0.001.

ABCA1 gene = conditions: HaCaT cells, 10^–7 M, microarray GSE117351 ref 44, cited from earlier work

| translocation of VDR from the cytoplasm to the nucleus (VDR) | translocation of LXRα to the nucleus (immunofluorescence, Manders' coefficient) (LXRα) | Compound | LXRE luciferase (transcriptional) activity [1] | ABCA1 RNA expression (qPCR) (ABCA1) | ABCA1 expression, stimulation (ABCA1 gene; 6 h) [times] | ABCA1 expression, stimulation (ABCA1 gene; 24 h) [fold] |
| --- | --- | --- | --- | --- | --- | --- |
| increased translocation | – | C=C1C(=CC=C2CCCC3(C)C2CCC3C(C)(O)CC(O)CC(C)C)CC(O)CC1O (stereo not drawn) [1,20,23(OH)3D3] | strongest stimulatory effects | – | – | – |
| – | induced translocation | C=C1/C(=C\C=C2/CCC[C@]3(C)[C@@H]([C@H](C)CCCC(C)(C)O)CC[C@@H]23)C[C@@H](O)C[C@@H]1O [1,25(OH)2D3, reference compound] | strongest stimulatory effects | stimulation | 2.4 | 2.4 |
| increased translocation | induced translocation | C=C1CC[C@H](O)C/C1=C/C=C1\CCC[C@@]2(C)[C@H]1CC[C@@H]2[C@@](C)(O)CCCC(C)C [20(OH)D3] | – | stimulation | – | – |
| – | – | C=C1CCC(O)CC1=CC=C1CCCC2(C)C1CCC2C(C)(O)CC(O)CC(C)C (stereo not drawn) [20,23(OH)2D3] | – | – | 2.8 | 2.3 |
